Key:
[1] = test system: motor neurons of zebrafishes treated with ATXN3 MO; test: Zebrafish confocal microscopy test of motor neurons; format: in vivo; conditions: 250 mg/kg BP with ATXN3 MO, after 48 hours; FIG. 4
Protocol: Zebrafish eggs were micro-injected with 300 nM/μl ATXN3 MO, 250 mg/kgBP, or ATXN3 MO in combination with 250 mg/kgBP, 125 mg/kg BP or 62.5 mg/kgBP. After 48 hours, the zebrafishes were enclosed in glass slides. The motor neurons in the living body were recorded by a confocal fluorescence microscopy.
The data shown in FIG. 4 was obtained by 100%*(the number of the survived zebrafishes/total number of the zebrafishes).

[2] = test system: MJD84.2 transgenic mice (SCA3 mice); test: Local motor test in SCA3 mice; format: in vivo; conditions: BP 100 or 500 mg/kg/bid, ligustilide 100 mg/kg/bid; for total moving distance vs untreated group and group fed with olive oil: FIG. 5A; for moving times (moving number) vs untreated group and group fed with olive oil: FIG. 5B; for moving time vs untreated group and group fed with olive oil: FIG. 5C
Protocol: (§1) MJD84.2 transgenic mice (i.e., the mice being transfected with ATXN3 gene with human 84 CAG repeat sequence, hereinafter referred to as “SCA3 mice”) were used in this experiment. MJD84.2 transgenic mice were an animal model used for studying spinal cerebellar atrophy.
(§2) The MJD84.2 transgenic mice of two weeks of age were randomly divided into five groups, each group had six mice. The mice were treated with the following conditions for two weeks: (1) untreated group; (2) treated with olive oil (i.e., only treated with the adjuvant); (3) treated with 100 mg/kg/bid (bis in die) of BP; (4) treated with 500 mg/kg/bid of BP; (5) treated with 100 mg/kg/bid of ligustilide. The wild type mice (WT) was used as a control group. After 2 weeks, local motor and rotarod test were conducted.
Local motor test was performed to test the exercise ability of mice. 10-week-old mice were tested on rotarod once every three weeks. Then, the mice were placed in a transparent acrylic box 2 hours and were free to move. A behavioral test was conducted for 1 hour by using VersaMax 420 (AccuscanInstrumentsInc, USA), and the data was analyzed by statistical methods.

[3] = test system: zebrafishes injected with ATXN3 MO; test: Zebrafish behavioral test (tail stimulation); format: in vivo; conditions: FIG. 3
Protocol: Morpholinos (MO) was produced by modifying the structure of a fragment of DNA, which can block protein translation process of mRNA to inhibit the expression of a target protein. The ATXN3 MO used in this experiment has a sequence of 5′-[…]-3′ (SEQ ID NO. 1), and the standard used in the control group is 5′-[…]-3′ (SEQ ID NO. 2) (hereinafter referred to as “Ct MO”). Before injection, the MO was dissolved in ddH2O, stored at −20° C. for used. Zebrafish eggs were micro-injected within about one hour after birth. After 21 to 48 hours post fertilization (hpf), the zebrafish eggs were micro-injected with ATXN3 MO or ATXN3 MO in combination with 250 mg/kg BP, 125 mg/kg BP or 62.5 mg/kg BP. After 48 hours, the fish tails were stimulated by tips, and the number of stimulation causing movement of the fish tails was measured.

[4] = test system: ubiquitin; test: Western blotting of cerebellum proteins, anti-ubiquitin antibody; format: in vivo; conditions: cerebellum tissue of SCA3 mice treated with BP; FIG. 9
Protocol: (§3) The MJD84.2 transgenic mice (i.e., the mice with modified ATXN3 gene) of eight weeks of age were randomly divided into five groups, with six mice in each group. The mice were treated with the following conditions: (1) untreated group; (2) treated with olive oil; (3) treated with 100 mg/kg/bid of BP; (4) treated with 500 mg/kg/bid of BP; (5) treated with 100 mg/kg/bid of ligustilide. Then, the mice were sacrificed at the age of 20 weeks and 24 weeks. Cerebellar slices staining and tissue protein extraction were performed (see Example 5). Whole brain tissue of the mice was fixed overnight with 3.7% formalin and embedded in paraffin. The samples were sectioned (4 μm) by using a Quanto kit (Thermo, USA) and mounted on a microscope slide.
The cerebellums of the mice sacrificed in example 4 were separated from the whole brain, and the proteins in the cerebellums were extracted. The purified proteins were analyzed by Western blotting assay using an anti-ubiquitin antibody and an anti-calbindin antibody, respectively, to determine the changes in the protein expression level of ubiquitin and calbindin in the cerebellum tissue of SCA3 mice in each group. β-actin was used as an internal control group. […]

[5] = test system: zebrafish; test: Zebrafish safe dose test (survival rate); format: in vivo; conditions: for survival rate of the zebrafishes: after 48 hours, 28.5° C., FIG. 2
Protocol: In this experiment, the zebrafishes that were used as the animal models in the experimental group were Tg (HuC:GFP), which is characterized by its primary sensory neurons (Rohon-Beard cells) that can produce fluorescence. The zebrafishes used in the control group were wild type zebrafishes. All of the zebrafishes were provided by TZCAS (Taiwan Zebrafish Core Facility at Academia Sinica, Taiwan) and TZCF (Taiwan Zebrafish Core Facility, Taiwan). First, the toxicity of BP to zebrafish was tested by injecting different dose of BP to zebrafishes. The zebrafishes were then kept at 28.5° C. After 48 hours, the survival rate of the zebrafishes was observed.
The survival rate of the zebrafishes treated with 500 mg/kg BP was 50%, and both of the survival rates of the zebrafishes treated with 250 mg/kg and 50 mg/kg BP were greater than 75%.

[6] = test system: MJD84.2 transgenic mice (SCA3 mice); test: Rotarod test in SCA3 mice; format: in vivo; conditions: BP 100 or 500 mg/kg/bid, ligustilide 100 mg/kg/bid, 4 to 40 rpm within 300 seconds, FIG. 6
Protocol: as §1, §2
Rotarod test was performed to test the balance and grip ability of mice. The mice were given practice two weeks before the first behavioral test. The experiment was conducted using an IITC rotarod (IITC Life Science Inc, USA).
10-week-old mice were tested on a rotarod once every three weeks. The test condition was set as a linear acceleration from 4 to 40 rpm within 300 seconds. The time (sec) that the mice fell from the rotarod (i.e., latency to fall) was recorded. […] After the rotarod test, the body weight of the mice were recorded. […]

[7] = test system: calbindin; test: Western blotting of cerebellum proteins, anti-calbindin antibody; format: in vivo; conditions: cerebellum tissue of SCA3 mice; BP 100 or 500 mg/kg/bid, ligustilide 100 mg/kg/bid; FIG. 8
Protocol: as §3
The cerebellums of the mice sacrificed in example 4 were separated from the whole brain, and the proteins in the cerebellums were extracted. The purified proteins were analyzed by Western blotting assay using an anti-ubiquitin antibody and an anti-calbindin antibody, respectively, to determine the changes in the protein expression level of ubiquitin and calbindin in the cerebellum tissue of SCA3 mice in each group. β-actin was used as an internal control group.
It has been known that calbindin is a marker of Purkinje cells.

[8] = test system: GFP-ATXN3 protein (Ataxin3Q84); test: In vitro cell test: GFP-ATXN3 fluorescence in transfected cells; format: cell-based, human; conditions: 5 μg/ml, 24 hours; HEK 293T or neural stem cells transfected with pEGFP-C1-Ataxin3Q84; FIG. 1
Protocol: In this experiment, the effects of BP and ligustilide on the protein expression level of SCA3 protein were analyzed. First, pEGFP-C1-Ataxin3Q84 plasmid (i.e., a plasmid comprising Ataxin gene with abnormal CAG repeat number (84Q)) containing green fluorescent protein or pEGFP-C1-Ataxin3Q28 plasmid (i.e., a plasmid comprising Ataxin gene with normal CAG repeat number (28Q)) (Addgene company, U.S.) was transfected into human embryonic kidney (HEK) cells 293T (Bioresource Collection and Research Center, Taiwan) or neural stem cells (NSC). The cells were then cultured in a DMEM medium (Dulbecco's modified Eagle's medium, Thermo) containing 10% fetal bovine serum (Gibco), and incubated in an incubator with 5% CO2 at 37° C. Then, the cells were treated with 5 μg/ml BP (A10353, purchased from Alfa Aesar, U.S.; with a purity of 95%) or ligustilide (5393-015M1, purchased from Pharmaron, China) for 24 hours. The protein aggregation of GFP-ATXN3 protein in the cells of each group was observed by a fluorescence microscopy. Wild type cells and cells transfected with green fluorescent protein (GFP) were used as the control group.

[9] = test system: Purkinje cells; test: Immunohistochemistry staining of cerebellar slices; format: in vivo; conditions: cerebellum slices of SCA3 mice; BP 100 or 500 mg/kg/bid, ligustilide 100 mg/kg/bid; sacrificed at 20 and 24 weeks; FIG. 7
Protocol: as §3

Row | SMILES | number of motor neurons [1] | total moving distance vs untreated group and group fed with olive oil [2] | moving times (moving number) vs untreated group and group fed with olive oil [2] | moving time vs untreated group and group fed with olive oil [2] | amount of stimulation causing the movement of fish tails ([3]; ATXN3 MO in combination with 250, 125 or 62.5 mg/kg BP, after 48 hours, vs ATXN3 MO alone) | restoring of behavioral ability of the diseased zebrafishes, comparison of doses ([3]; BP of 250 mg/kg, compared with 125 and 62.5 mg/kg) | content of the ubiquitination proteins vs untreated group and group fed with olive oil [4] | survival rate of the zebrafishes ([5]; 50 mg/kg BP injected) | survival rate of the zebrafishes ([5]; 250 mg/kg BP injected) | survival rate of the zebrafishes ([5]; 500 mg/kg BP injected) [%] | safe dose for zebrafish ([5]; from survival rate after 48 hours) | balance and grip ability (rotarod, latency to fall) vs untreated group and group fed with olive oil [6] | protein expression level of calbindin vs untreated group and group fed with olive oil [7] | fluorescent signal of Ataxin3Q84 in the cells vs untreated groups [8] | number of the Purkinje cells vs untreated group and group fed with olive oil [9]
1 | CCCC=C1OC(=O)c2ccccc21 [BP, n-butylidenephthalide] | can maintain the number of motor neurons | higher | higher | higher | restored (i.e., decreased) | the most obvious effect | significantly higher | greater than 75% | greater than 75% | 50 | lower than 250 mg/kg | better | significantly higher | significantly lower | significantly higher
2 | CCC/C=C1\OC(=O)C2=C1CCC=C2 [ligustilide, 3-butylidene-4,5-dihydrophthalide] | – | higher | higher | higher | – | – | – | – | – | – | – | better | significantly higher | significantly lower | significantly higher

— patent US9889117B2, “Method for treating and/or delaying the degeneration of Purkinje cells” (EVERFRONT BIOTECH INC., priority 2014, dated 2018)
